# Reference: patent US20080114020A1, “Difluoro-Substituted Imidazopyridines” (Altana Pharma AG, priority 2004, published 2008)
# Tested on: pentagastrin-stimulated acid secretion of the perfused rat stomach
# Conditions: anesthetized CD rat, female; dose 1 μmol/kg i.d. (intraduodenal); pentagastrin 1 μg/kg i.v. infusion
# Protocol: The abdomen of anesthetized rats (CD rat, female, 200-250 g; 1.5 g/kg i.m. urethane) was opened after tracheotomy by a median upper abdominal incision and a PVC catheter was fixed transorally in the esophagus and another via the pylorus such that the ends of the tubes just projected into the gastric lumen. The catheter leading from the pylorus led outward into the right abdominal wall through a side opening.
# After thorough rinsing (about 50-100 ml), warm (37° C.) physiological NaCl solution was continuously passed through the stomach (0.5 ml/min, pH 6.8-6.9; Braun-Unita I). The pH (pH meter 632, glass electrode EA 147; φ=5 mm, Metrohm) and, by titration with a freshly prepared 0.01 N NaOH solution to pH 7 (Dosimat 665 Metrohm), the secreted HCl were determined in the effluent in each case collected at an interval of 15 minutes.
# The gastric secretion was stimulated by continuous infusion of […] (=1.65 ml/h) of i.v. pentagastrin (left femoral vein) about 30 min after the end of the operation (i.e. after determination of 2 preliminary fractions). The substances to be tested were administered intraduodenally in a 2.5 ml/kg liquid volume 60 min after the start of the continuous pentagastrin infusion. The body temperature of the animals was kept at a constant 37.8-38° C. by infrared irradiation and heat pads (automatic, stepless control by means of a rectal temperature sensor).
row,SMILES,Inhibition of acid secretion (%)
1,"Cc1nc2c3c(ccn2c1C)C(c1ccccc1)C(O)C(F)(F)O3 [Example 1, (8R,9R)-7,7-Difluoro-2,3-dimethyl-8-hydroxy-9-phenyl-7H-8,9-dihydro-pyrano[2,3-c]imidazo[1,2-a]pyridine]",>85%
2,"CC(=O)OC1C(c2ccccc2)c2ccn3c(C)c(C)nc3c2OC1(F)F [Example 2, (8R,9R)-8-Acetoxy-7,7-difluoro-2,3-dimethyl-9-phenyl-7H-8,9-dihydro-pyrano[2,3-c]imidazo[1,2-a]pyridine]",>85%
3,"COCC(=O)O[C@@H]1[C@@H](c2ccccc2)Oc2c(ccn3c(C)c(C)nc23)C1(F)F [Example 8, (8R,9R)-7,7-Difluoro-2,3-dimethyl-8-(2-methoxy-acetyloxy)-9-phenyl-7H-8,9-dihydro-pyrano[2,3-c]imidazo[1,2-a]pyridine]",>85%
4,"Cc1nc2c3c(ccn2c1C)C(c1ccccc1)C(OC(=O)CN(C)C)C(F)(F)O3 [Example 9, (8R,9R)-7,7-Difluoro-2,3-dimethyl-8-(2-dimethylamino-acetyloxy)-9-phenyl-7H-8,9-dihydro-pyrano[2,3-c]imidazo[1,2-a]pyridine]",>85%
5,"COC(=O)O[C@@H]1[C@@H](c2ccccc2)Oc2c(ccn3c(C)c(C)nc23)C1(F)F [Example 10, (8R,9R)-7,7-Difluoro-2,3-dimethyl-8-(methoxy-carbonyloxy)-9-phenyl-7H-8,9-dihydro-pyrano[2,3-c]imidazo[1,2-a]pyridine]",>85%
